The test system of data set [1] is PC-3. Briefly: Cytotoxicity against human PC3 cells expressing […] integrin assessed as cell survival after 72 hrs by SRB assay. The class given is functional, cell-based. The conditions noted are these: PC-3, 72 h. In general terms: The SRB assay estimates cell density from bound dye.
The next data set relates to A2780. The data set is described as follows: Cytotoxicity against human A2780 cells overexpressing […] integrin assessed as cell survival after 72 hrs by SRB assay. The class given is functional, cell-based. Particulars: A2780, 72 h.
The target of data set [2] is T1, Integrin alpha-V/beta-3 (Homo sapiens, UniProt P05106+P06756). The data set is described as follows: Displacement of [125I]echistatin from integrin […] after 3 hrs by gamma counter. Type of data set: protein-complex assay. A general note: In a radioligand displacement assay an active substance lowers the binding of a labelled ligand.
T1 sequence (P05106 27-788 limits assumed): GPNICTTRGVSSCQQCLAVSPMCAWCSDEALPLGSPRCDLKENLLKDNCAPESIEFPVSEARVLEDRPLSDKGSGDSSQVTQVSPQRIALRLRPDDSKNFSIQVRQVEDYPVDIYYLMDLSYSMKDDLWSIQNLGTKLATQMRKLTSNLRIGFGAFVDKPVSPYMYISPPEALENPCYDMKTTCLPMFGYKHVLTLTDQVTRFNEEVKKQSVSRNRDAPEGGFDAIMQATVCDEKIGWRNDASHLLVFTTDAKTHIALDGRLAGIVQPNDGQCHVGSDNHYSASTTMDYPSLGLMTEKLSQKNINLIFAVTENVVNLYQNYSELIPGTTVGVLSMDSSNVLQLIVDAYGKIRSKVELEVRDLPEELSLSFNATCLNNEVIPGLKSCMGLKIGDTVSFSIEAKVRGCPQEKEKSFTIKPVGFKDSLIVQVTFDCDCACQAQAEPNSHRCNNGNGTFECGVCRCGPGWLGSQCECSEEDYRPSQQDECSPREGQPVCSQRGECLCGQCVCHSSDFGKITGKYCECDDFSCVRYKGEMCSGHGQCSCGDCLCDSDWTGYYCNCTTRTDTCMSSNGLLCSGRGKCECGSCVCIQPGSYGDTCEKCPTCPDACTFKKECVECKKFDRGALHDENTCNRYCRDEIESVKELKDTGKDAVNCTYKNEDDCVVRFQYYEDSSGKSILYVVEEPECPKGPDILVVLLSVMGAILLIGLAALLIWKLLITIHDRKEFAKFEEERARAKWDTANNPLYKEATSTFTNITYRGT
T1 sequence (P06756 31-889 limits assumed): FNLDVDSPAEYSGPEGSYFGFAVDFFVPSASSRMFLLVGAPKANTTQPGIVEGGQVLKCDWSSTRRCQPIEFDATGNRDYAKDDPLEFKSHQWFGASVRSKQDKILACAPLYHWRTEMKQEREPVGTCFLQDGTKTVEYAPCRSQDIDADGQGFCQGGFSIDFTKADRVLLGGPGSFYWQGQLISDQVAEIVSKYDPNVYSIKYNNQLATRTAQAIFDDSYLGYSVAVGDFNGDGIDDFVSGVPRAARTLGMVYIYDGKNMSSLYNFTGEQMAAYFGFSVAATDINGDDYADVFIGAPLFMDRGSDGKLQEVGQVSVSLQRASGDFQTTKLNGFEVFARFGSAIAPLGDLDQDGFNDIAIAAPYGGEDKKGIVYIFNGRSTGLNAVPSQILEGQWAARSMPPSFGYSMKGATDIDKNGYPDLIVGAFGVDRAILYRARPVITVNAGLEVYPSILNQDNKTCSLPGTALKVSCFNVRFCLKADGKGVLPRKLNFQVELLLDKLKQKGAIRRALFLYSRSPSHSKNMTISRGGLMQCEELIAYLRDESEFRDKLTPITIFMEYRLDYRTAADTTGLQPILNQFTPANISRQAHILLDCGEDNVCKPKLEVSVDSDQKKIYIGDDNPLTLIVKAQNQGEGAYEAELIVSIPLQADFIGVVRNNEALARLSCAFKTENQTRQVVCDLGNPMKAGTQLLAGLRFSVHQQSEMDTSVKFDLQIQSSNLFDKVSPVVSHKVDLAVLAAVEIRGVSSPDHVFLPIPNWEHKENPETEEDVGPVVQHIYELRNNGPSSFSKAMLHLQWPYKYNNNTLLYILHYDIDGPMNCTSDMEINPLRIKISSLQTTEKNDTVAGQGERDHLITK
T1 sequence (P06756 891-1048 limits assumed): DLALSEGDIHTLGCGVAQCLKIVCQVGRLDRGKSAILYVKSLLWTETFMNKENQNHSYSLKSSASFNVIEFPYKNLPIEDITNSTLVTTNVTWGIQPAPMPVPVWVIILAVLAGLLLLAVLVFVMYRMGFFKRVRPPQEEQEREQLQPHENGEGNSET
In another data set the target is Integrin alpha-V/beta-5 (Homo sapiens, UniProt P06756+P18084). The data set is described as follows: Displacement of [125I]echistatin from integrin […] after 3 hrs by gamma counter. Type of data set: protein-complex assay.
Sequence of Integrin alpha-V/beta-5 (P06756 31-889 limits assumed): as the sequence (P06756 31-889 limits assumed) above
Sequence of Integrin alpha-V/beta-5 (P06756 891-1048 limits assumed): as the sequence (P06756 891-1048 limits assumed) above
Sequence of Integrin alpha-V/beta-5 (P18084 24-799 limits assumed): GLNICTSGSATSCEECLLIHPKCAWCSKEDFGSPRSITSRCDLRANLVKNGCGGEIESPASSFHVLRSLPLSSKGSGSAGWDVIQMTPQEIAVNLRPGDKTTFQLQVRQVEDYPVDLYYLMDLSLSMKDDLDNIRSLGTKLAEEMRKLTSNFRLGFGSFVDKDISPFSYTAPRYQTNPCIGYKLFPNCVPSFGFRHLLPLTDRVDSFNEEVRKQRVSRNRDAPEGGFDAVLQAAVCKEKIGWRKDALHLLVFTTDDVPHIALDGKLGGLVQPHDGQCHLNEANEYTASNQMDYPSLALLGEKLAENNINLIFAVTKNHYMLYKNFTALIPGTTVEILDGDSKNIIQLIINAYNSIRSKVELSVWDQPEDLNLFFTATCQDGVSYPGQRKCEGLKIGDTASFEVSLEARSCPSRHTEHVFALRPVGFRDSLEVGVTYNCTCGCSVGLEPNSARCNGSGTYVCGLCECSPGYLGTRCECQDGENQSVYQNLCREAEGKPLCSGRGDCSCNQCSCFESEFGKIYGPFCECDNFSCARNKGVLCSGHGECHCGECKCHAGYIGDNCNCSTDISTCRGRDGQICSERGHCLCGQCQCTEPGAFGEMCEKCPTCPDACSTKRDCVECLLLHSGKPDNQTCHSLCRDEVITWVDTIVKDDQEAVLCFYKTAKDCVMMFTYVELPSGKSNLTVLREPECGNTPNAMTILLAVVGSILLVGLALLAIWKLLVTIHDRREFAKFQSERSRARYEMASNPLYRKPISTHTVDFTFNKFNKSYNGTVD
In data set [3] the target is T1, Integrin alpha-V/beta-3. The data set is described as follows: Inhibition of vitronectin binding to human alphaVbeta3 integrin over expressed in A2780 cells. Type of data set: cell-based.
Data set [4] deals with T1, Integrin alpha-V/beta-3. The data set is described as follows: Inhibition of vitronectin binding to human alphaVbeta3 integrin expressed in PC3 cells. The class given is cell-based, PC-3.
Data set [5] in a line: Half life in rat plasma at 5 uM after 24 hrs by HPLC analysis. Type of data set: ADME, cell-free.
Data set [6] has as its system Mus musculus. The data set is described as follows: Toxicity in CD1 nude mouse xenografted with human PC3 cells assessed as body weight loss at 60 mg/10 mL/kg, ip q4d x 4 schedule administered on day 3 of tumor implantation measured after 31 days post tumor implantation. The class given is organism-based, PC-3. The conditions noted are these: in vivo, 744 h. (In general: A xenograft is tissue or cells of one species grown in another, often human tumour cells in immunodeficient mice.)

The subject of data set [7] is Mus musculus. The data set is described as follows: Toxicity in CD1 nude mouse xenografted with human PC3 cells assessed as mortality at 60 mg/10 mL/kg, ip q4d x 4 schedule administered on day 3 of tumor implantation measured after 31 days post tumor implantation. Particulars: in vivo, 744 h. Type of data set: organism-based, PC-3.
Data set [8] has as its system PC-3. Briefly: Antimetastatic activity against human PC3 cells xenografted in CD1 nude mouse assessed as area of metastases at 60 mg/10 mL/kg, ip q4d x 4 schedule administered on day 3 of tumor implantation measured after 31 days post tumor implantation. Type of data set: functional.
The subject of data set [9] is PC-3. Briefly: Antimetastatic activity against human PC3 cells xenografted in CD1 nude mouse assessed as increase in life span at 60 mg/10 mL/kg, ip q4d x 4 schedule administered on day 3 of tumor implantation measured after 31 days post tumor implantation. The class given is functional.
Data set [10] has as its system PC-3. Briefly: Antimetastatic activity against human PC3 cells xenografted in CD1 nude mouse assessed as median survival time at 60 mg/10 mL/kg, ip q4d x 4 schedule administered on day 3 of tumor implantation measured after 31 days post tumor implantation. The class given is functional.
The test system of data set [11] is Mus musculus. The data set is described as follows: Toxicity in CD1 nude mouse xenografted with human A498 cells assessed as body weight loss at 55 mg/10 mL/kg, ip q4d x 8 schedule administered on day 3 of tumor implantation measured after 10 days. The class given is organism-based. The conditions noted are these: in vivo, 240 h.
In data set [12] the test system is Mus musculus. The data set is described as follows: Toxicity in CD1 nude mouse xenografted with human A498 cells assessed as mortality at 55 mg/10 mL/kg, ip q4d x 8 schedule administered on day 3 of tumor implantation measured after 10 days. The class given is organism-based. The conditions noted are these: in vivo, 240 h.
For another data set, the system named is A498. The data set is described as follows: Antitumor activity against human A498 cells xenografted in CD1 nude mouse assessed as tumor volume inhibition at 55 mg/10 mL/kg, ip q4d x 8 schedule administered on day 3 of tumor implantation measured after 10 days. Type of data set: functional.

Each structure is given as a SMILES string. pIC50: −log10 of the molar value. Bounds are passed on as bounds.

The term pIC50 denotes the negative decadic logarithm of the IC50, by convention in mol/L. Take `CC[C@@]1(O)C(=O)OCc2c1cc1n(c2=O)Cc2c-1nc1ccc(O)cc1c2/C=N/OC(C)(C)C`: the pIC50 with PC-3 [1] is 7.82; with A2780, 9.40.

`N[C@@H](CCC(=O)N1CCN(c2cccc(NC3=NCCCN3)c2)CC1)C(=O)O`: the pIC50 at Integrin alpha-V/beta-3 [2] was 6.10.

As for `COC(=O)c1ccc(CNC(=O)N[C@@H](CCC(=O)N2CCN(c3cccc(N=C4NCCCN4)c3)CC2)C(=O)O)cc1`, the negative-log IC50 (pIC50) on Integrin alpha-V/beta-3 [2] is 6.96.

Turning to `COC(=O)c1ccc(COC(=O)N[C@@H](CCC(=O)N2CCN(c3cccc(NC4=NCCCN4)c3)CC2)C(=O)O)cc1`, the pIC50 on Integrin alpha-V/beta-3 [2] is 8.64.

In general, half-life refers to the time needed for the level to fall by half in the phase considered. Low values mean rapid decline, high ones slow decline. Turning to `CCc1c2c(nc3ccc(OC(=O)N4CCN(C(=O)c5ccc(COC(=O)N[C@@H](CCC(=O)N6CCN(c7cccc(NC8=NCCCN8)c7)CC6)C(=O)O)cc5)CC4)cc13)-c1cc3c(c(=O)n1C2)COC(=O)[C@]3(O)CC.Cl`, the pIC50 in the data set with PC-3 [1] is 5.47; with A2780, 7.48; at Integrin alpha-V/beta-3 [2], 8.89; on Integrin alpha-V/beta-5 it was 9.00; on Integrin alpha-V/beta-3 [3], 7.05; at Integrin alpha-V/beta-3 [4] it was 7.43. The compound also gave a half-life at 5 µM in data set [5] of 13 h. The Activity with Mus musculus [6] was 0%; in the data set with Mus musculus [7], “Non-toxic”; in the data set with PC-3 [8], 2.5 mm2; with PC-3 [9], 34%; in the data set on Mus musculus [11], 3%; in the data set on Mus musculus [12], “Non-toxic”. The MST with PC-3 [10] is 63 days. For the same compound, the “inhibition (INH)” value with A498 is reported as 39%.

Consider `CC[C@@]1(O)C(=O)OCc2c1cc1n(c2=O)Cc2cc3cc(OC(=O)N4CCN(C(=O)c5ccc(COC(=O)N[C@@H](CCC(=O)N6CCN(c7cccc(NC8=NCCCN8)c7)CC6)C(=O)O)cc5)CC4)ccc3nc2-1`, for which the negative logarithm of the IC50 (pIC50) with PC-3 [1] was less than 6.00; in the data set on A2780, 6.96; on Integrin alpha-V/beta-3 [2], 8.64; on Integrin alpha-V/beta-5, 8.69; at Integrin alpha-V/beta-3 [3] it was 6.14; at Integrin alpha-V/beta-3 [4] it was 6.46.

`CC[C@@]1(O)C(=O)OCc2c1cc1n(c2=O)Cc2c-1nc1ccc(OC(=O)N3CCN(C(=O)c4ccc(COC(=O)N[C@@H](CCC(=O)N5CCN(c6cccc(NC7=NCCCN7)c6)CC5)C(=O)O)cc4)CC3)cc1c2/C=N/OC(C)(C)C`: the pIC50 with PC-3 [1] was less than 6.00; in the data set with A2780, 7.17; on Integrin alpha-V/beta-3 [2] it was 8.32; at Integrin alpha-V/beta-5, 9.12; on Integrin alpha-V/beta-3 [3], 6.17; on Integrin alpha-V/beta-3 [4], 6.89.

Turning to `CC[C@@]1(O)C(=O)OCc2c1cc1n(c2=O)Cc2cc3c(CN(C)C)c(OC(=O)N4CCN(C(=O)c5ccc(COC(=O)N[C@@H](CCC(=O)N6CCN(c7cccc(NC8=NCCCN8)c7)CC6)C(=O)O)cc5)CC4)ccc3nc2-1`, the pIC50 in the data set with PC-3 [1] is less than 6.00; in the data set on A2780, 6.24; at Integrin alpha-V/beta-3 [2] it was 8.30; on Integrin alpha-V/beta-5 it was 9.14; on Integrin alpha-V/beta-3 [3], 6.00; at Integrin alpha-V/beta-3 [4], 6.27.

For `O=C(N[C@@H](CCC(=O)N1CCN(c2cccc(N=C3NCCCN3)c2)CC1)C(=O)O)OCc1ccc(C(=O)O)cc1`, the negative-log IC50 (pIC50) on Integrin alpha-V/beta-3 [2] is 10.09; at Integrin alpha-V/beta-5, 8.66; at Integrin alpha-V/beta-3 [3], 7.77; on Integrin alpha-V/beta-3 [4] it was 8.20.

Consider `O=C(N[C@@H](CCC(=O)N1CCN(c2cccc(NC3=NCCCN3)c2)CC1)C(=O)O)OCc1ccccc1`, for which the pIC50 at Integrin alpha-V/beta-3 [2] is 8.49.

Consider `CCc1c2c(nc3ccc(O)cc13)-c1cc3c(c(=O)n1C2)COC(=O)[C@]3(O)CC` [7-ETHYL-10-HYDROXYCAMPTOTHECIN], for which the pIC50 with PC-3 [1] is 8.59; with A2780 it was 8.05.

Take `CC[C@@]1(O)C(=O)OCc2c1cc1n(c2=O)Cc2cc3cc(O)ccc3nc2-1` [HYDROXYCAMPTOTHECIN]: the values for the pIC50 in the data set with PC-3 [1] and with A2780 were 7.11 and 8.40, respectively.

As for `CC[C@@]1(O)C(=O)OCc2c1cc1n(c2=O)Cc2cc3c(CN(C)C)c(O)ccc3nc2-1` [TOPOTECAN], the values for the negative-log IC50 (pIC50) with PC-3 [1] and in the data set with A2780 were 6.73 and 8.22, respectively.

(Values after ChEMBL document CHEMBL2150976, “Camptothecins in tumor homing via an RGD sequence mimetic” (Bioorg Med Chem Lett, 2012).)
